How the values were obtained:
Format in all cases: in vivo
tobacco whitefly = assay: Test Example 4: test diluent scattered on tomato seedling with hatched tobacco whitefly larvae; settings: 168 h; 500 ppm, 10 ml/cup scattered on tomato seedling at larvae stage, counted after seven days at 25° C.; read-out: Control value
Method: The formulations were diluted with water so that the concentration of the active ingredient became 500 ppm and thus test diluents were prepared. On the other hand, by releasing tobacco whitefly imagos to a tomato seedling planted in a plastic cup to allow them to lay eggs for about 24 hours. The tomato seedling was kept in a green house for eight days. At the stage in which larvae hatched from the laid eggs, any of the test diluents was scattered at the rate of 10 ml/cup. The tomato seedling was kept in the greenhouse at 25° C. for seven days. The number of survived larvae on tomato leaves was counted, and the control value was calculated by the following equation. Control value(%)={1−(Cb×Tai)/(Cai×Tb)}×100 wherein each character represents the following meaning: Cb: number of insects in non-treated section before treatment Cai: number of insects in non-treated section during observation Tb: number of insects in treated section before treatment Tai: number of insects in treated section during observation

[1] = system: cotton aphids (Aphis gossypii Glover); assay: Test Example 1: test diluent scattered on cucumber seedling inoculated with cotton aphids; settings: 120 h, 500 ppm active ingredient, 10 ml scattered on cucumber seedling, counted five days after scattering, read-out: Control value
Method: The formulations were diluted with water so that the concentration of the active ingredient became 500 ppm and thus test diluents were prepared. On the other hand, a cucumber seedling (second true leaf development stage) planted in a plastic cup was inoculated with about 30 cotton aphids (Aphis gossypii Glover) and allowed to stand for one day. To the seedling, any one of the diluents (10 ml) was scattered. Five days after the scattering, the number of survived cotton aphids parasitic on the cucumber leaves was counted, and the control value was calculated by the following equation. Control value(%)={1−(Cb×Tai)/(Cai×Tb)}×100 wherein each character represents the following meaning: Cb: the number of insects in non-treated section before treatment Cai: the number of insects in non-treated section during observation Tb: the number of insects in treated section before treatment Tai: the number of insects in treated section during observation

cotton aphids = assay: Test Example 2: plant foot irrigation of cucumber seedling in urethane mat, cotton aphids inoculated one day after treatment; settings: 168 h; 500 ppm, 5 ml plant foot irrigation, urethane mat; aphids inoculated one day after treatment, counted seven days after; read-out: Control value
Method: The formulations were diluted with water so that the concentration of the active ingredient became 500 ppm and thus test diluents were prepared. On the other hand, a plant foot of cucumber seedling (second true leaf development stage) planted in a urethane mat was irrigated with any one of diluents (5 ml). One day after the treatment, the cucumber leaves were inoculated with 30 cotton aphids (all stages). Further seven days after, the number of survived cotton aphids parasitic on the cucumber leaves was counted, and the control value was calculated by the following equation. Control value(%)={1−(Cb×Tai)/(Cai×Tb)}×100 wherein each character represents the following meaning: Cb: number of insects in non-treated section before treatment Cai: number of insects in non-treated section during observation Tb: number of insects in treated section before treatment Tai: number of insects in treated section during observation

rice brown planthopper = assay: Test Example 6: plant foot irrigation of rice plant seedling, rice brown planthopper released after seven days; settings: Nilaparvata lugens, 144 h; 500 ppm, 5 ml plant foot irrigation of rice seedling; first-instars released after seven days, counted six days after; read-out: Control value
Method: The formulations were diluted with water so that the concentration of the active ingredient became 500 ppm and thus test diluents were prepared. On the other hand, a plant foot of rice plant seedling (two weeks after seeding, second leaf development stage) planted in a plastic cup was irrigated with any one of diluents (5 ml). The seedling was kept in a green house of 25° C. for seven days. Thirty first-instars of rice brown planthopper were released to the seedling, which was kept in the green house at 25 C for six days. Thereafter, the number of survived rice brown planthopper parasitic on rice plant leaves was counted, and the control value was calculated by the following equation. Control value(%)={1−(Cb×Tai)/(Cai×Tb)}×100 wherein each character represents the following meaning: Cb: number of insects in non-treated section before treatment Cai: number of insects in non-treated section during observation Tb: number of insects in treated section before treatment Tai: number of insects in treated section during observation

Structure (SMILES)	pest or weed control at 500 ppm (tobacco whitefly)	pest or weed control at 500 ppm [1]	pest or weed control at 500 ppm (cotton aphids)	pest or weed control at 500 ppm (rice brown planthopper)
FC(F)(F)c1ccc2nc(-c3ccncc3)oc2n1 [Active Compound 153, 2-(pyridin-4-yl)-5-(trifluoromethyl)oxazolo[5,4-b]pyridine]	≥ 90%	–	–	–
FC(F)(F)c1ccc2nc(-c3ccncc3Cl)oc2n1 [Active Compound 154, 2-(3-chloropyridin-4-yl)-5-(trifluoromethyl)oxazolo[5,4-b]pyridine]	≥ 90%	–	–	–
CCc1ccc2oc(-c3ccncc3)nc2c1 [active compound 3, 5-ethyl-2-(pyridin-4-yl)-benzoxazole]	≥ 90%	–	–	–
CC(C)c1ccc2oc(-c3ccncc3)nc2c1 [active compound 5, 5-isopropyl-2-(pyridin-4-yl)-benzoxazole]	≥ 90%	≥ 90%	–	–
CC(C)(C)c1ccc2oc(-c3ccncc3)nc2c1 [active compound 6, 5-tert-butyl-2-(pyridin-4-yl)-benzoxazole]	≥ 90%	≥ 90%	–	–
FC(F)(F)c1ccc2oc(-c3ccncc3I)nc2c1 [active compound 29, 2-(3-iodopyridin-4-yl)-5-(trifluoromethyl)benzoxazole]	–	–	≥ 90%	–
FC(F)(F)COc1cnccc1-c1nc2cc(C(F)(F)F)ccc2o1 [active compound 39, 2-[3-(2,2,2-trifluoroethyl)oxypyridin-4-yl]-5-(trifluoromethyl)benzoxazole]	–	–	–	≥ 90%
CCSc1cnccc1-c1nc2cc(C(F)(F)F)ccc2o1 [active compound 41, 2-(3-ethylthiopyridin-4-yl)-5-(trifluoromethyl)benzoxazole]	–	–	–	≥ 90%
Nc1cnccc1-c1nc2cc(C(F)(F)F)ccc2o1 [active compound 52, 2-(3-aminopyridin-4-yl)-5-(trifluoromethyl)benzoxazole]	≥ 90%	–	–	–
FC(F)(F)c1ccc2oc(-c3ccncc3N3CCCC3)nc2c1 [active compound 53, 2-[3-(pyrrolidine-1-yl)pyridin-4-yl]-5-(trifluoromethyl)benzoxazole]	≥ 90%	–	–	–
FC(F)(F)c1ccc2oc(-c3ccncc3N3CCOCC3)nc2c1 [active compound 55, 2-[3-(morpholin-4-yl)pyridin-4-yl]-5-(trifluoromethyl)benzoxazole]	–	–	≥ 90%	–
FC(F)(F)c1ccc2oc(-c3ccncc3-n3ccnc3)nc2c1 [active compound 56, 2-[3-(imidazole-1-yl)pyridin-4-yl]-5-(trifluoromethyl)benzoxazole]	–	–	≥ 90%	–
FC(F)(F)c1ccc2oc(-c3ccncc3OCC(F)(F)C(F)(F)F)nc2c1 [active compound 75, 2-[3-(2,2,3,3,3-pentafluoropropoxy)pyridin-4-yl]-5-(trifluoromethyl)benzoxazole]	–	–	–	≥ 90%
FC(F)(F)Sc1ccc2oc(-c3ccncc3)nc2c1 [active compound 76, 2-(pyridin-4-yl)-5-(trifluoromethylthio)benzoxazole]	–	–	≥ 90%	–
FC(F)(F)COc1cnccc1-c1nc2cc(C(F)(F)F)c(Cl)cc2o1 [active compound 92, 6-chloro-2-[3-(2,2,2-trifluoroethoxy)pyridin-4-yl]-5-(trifluoromethyl)benzoxazole]	–	–	–	≥ 90%
CCc1cnccc1-c1nc2cc(C(F)(F)F)c(Cl)cc2o1 [active compound 93, 6-chloro-2-(3-ethylpyridin-4-yl)-5-(trifluoromethyl)benzoxazole]	–	–	≥ 90%	≥ 90%
Fc1cc2oc(-c3ccncc3Cl)nc2cc1C(F)(F)F [active compound 94]	–	–	≥ 90%	–
COc1cnccc1-c1nc2cc(C(C)(C)C)ccc2o1 [active compound 100, 5-tert-butyl-2-(3-methoxypyridin-4-yl)benzoxazole]	≥ 90%	≥ 90%	–	≥ 90%
CC(C)(C)c1ccc2oc(-c3ccncc3OCC(F)(F)F)nc2c1 [active compound 101, 5-tert-butyl-2-[3-(2,2,2-trifluoroethoxy)pyridin-4-yl]benzoxazole]	≥ 90%	≥ 90%	–	≥ 90%
CC(C)Oc1cnccc1-c1nc2cc(C(C)(C)C)ccc2o1 [active compound 104, 5-tert-butyl-2-(3-isopropoxypyridin-4-yl)benzoxazole]	≥ 90%	≥ 90%	–	–
CCc1cnccc1-c1nc2cc(C(C)(C)C)ccc2o1 [active compound 105, 5-tert-butyl-2-(3-ethylpyridin-4-yl)benzoxazole]	≥ 90%	≥ 90%	–	–
FC(F)COc1cnccc1-c1nc2cc(C(F)(F)F)ccc2o1 [active compound 110, 2-[3-(2,2-difluoroethoxy)pyridin-4-yl]-5-(trifluoromethyl)benzoxazole]	≥ 90%	≥ 90%	≥ 90%	≥ 90%
CC(Oc1cnccc1-c1nc2cc(C(F)(F)F)ccc2o1)C(F)(F)F (centres unmarked) [active compound 111, 2-[3-(1-methyl-2,2,2-trifluoroethoxy)pyridin-4-yl]-5-(trifluoromethyl)benzoxazole]	≥ 90%	≥ 90%	–	≥ 90%
FC(F)(F)c1ccc2oc(-c3ccncc3OC3CCCC3)nc2c1 [active compound 115, 2-(3-cyclopentyloxypyridin-4-yl)-5-(trifluoromethyl)benzoxazole]	–	≥ 90%	–	–
CC(C)COc1cnccc1-c1nc2cc(C(F)(F)F)ccc2o1 [active compound 116, 2-(3-isobutoxypyridin-4-yl)-5-(trifluoromethyl)benzoxazole]	–	≥ 90%	–	–
CCC(C)Oc1cnccc1-c1nc2cc(C(F)(F)F)ccc2o1 (centres unmarked) [active compound 119, 2-(3-sec-butoxypyridin-4-yl)-5-(trifluoromethyl)benzoxazole]	–	–	≥ 90%	–
COCCOc1cnccc1-c1nc2cc(C(F)(F)F)ccc2o1 [active compound 120, 2-[3-(2-methoxyethoxy)pyridin-4-yl]-5-(trifluoromethyl)benzoxazole]	–	–	≥ 90%	–
FC(F)Oc1cnccc1-c1nc2cc(C(F)(F)F)ccc2o1 [active compound 126, 2-(3-difluoromethoxypyridin-4-yl)-5-(trifluoromethyl)benzoxazole]	≥ 90%	≥ 90%	≥ 90%	≥ 90%
FC(F)(F)c1ccc2oc(-c3ccncc3-c3cccnc3)nc2c1 [active compound 128, 4-(5-trifluoromethyl-benzoxazole-2-yl)-[3,3′]bipyridinyl]	–	–	≥ 90%	–
CN(C)c1cnccc1-c1nc2cc(C(F)(F)F)ccc2o1 [active compound 131, dimethyl-{4-[5-(trifluoromethyl)benzoxazole-2-yl]pyridin-3-yl}amine]	–	–	≥ 90%	–

— patent publication US8445522B2, “Substituted 2-(4-pyridyl)benzoxazoles, and compositions thereof, for use in arthropod pest control” (Sumitomo Chemical Company, Limited, priority 2009, dated 2013)
